# In patent US20260347435A1, “y-SECRETASE INHIBITOR, Aß-PEPTIDE PRODUCTION INHIBITOR, AND PHARMACEUTICAL” (priority 2022, published 2026):
# What was measured:
# γ-secretase [1] = conditions: phase III clinical trials; trials stopped; cited from earlier work
# γ-secretase [2] = conditions: verification experiment; pseudo-inhibitor; cited from earlier work
# [3] = biological target: T1, human γ-secretase complex, APP as substrate (Homo sapiens, UniProt P49768); test: β-galactosidase assay of γ-secretase-expressing yeast with related-art GSI, APP substrate; type: cell-based
# T1 construct: substrate APPC55-Gal4, β-galactosidase reporter
# Method: The yeast expressing the γ-secretase complex, the substrate APPC55-Gal4, and the three-finger toxin produced in the foregoing was inoculated in 1.5 mL of a SD-LWU medium, and the resultant was shake-cultured (180 rpm) at 30 °C until its turbidity became from 0.8 to 1.0. After that, the cultured product was centrifuged (15,000 rpm, 3 minutes, room temperature), and cells were recovered. The cells were washed with 1 mL of cooling water, and were then suspended in 30 μL of a Lysis buffer (20 mM Tris-HCl, pH: 8.0, 10 mM MgCl2, 50 mM KCl, 1 mM EDTA, 5% glycerol, and 1 mM DTT), followed by the addition of an appropriate amount of acid-treated glass beads (425 μm to 600 μm, Sigma-Aldrich Co. LLC) thereto. After that, the mixture was stirred with a vortex mixer so that the cells were crushed. The crushed liquid was centrifuged (15,000 rpm, 10 minutes, 4 °C) to provide a lysate. 80 Microliters of 4 mg/ml ortho-nitrophenyl-β-galactoside (ONPG) was added to the mixed liquid of 10 μL of the lysate and 400 μL of a Z buffer (60 mM Na2HPO4, 40 mM NaH2PO4-2H2O, 10 mM KCl, 1 mM MgSO4-7H2O, and 0.27% 2-mercaptoethanol) to start a reaction. […] After that, the absorbance (A420) of nitrophenol produced in the reaction liquid at 420 nm was measured. Further, the protein concentration of the lysate was determined by a Bradford method (Bio-Rad Laboratories, Inc.), and β-galactosidase activity was calculated [β-galactosidase unit/mg protein=1,000×A420/{time (min)×protein concentration (mg/μL)×liquid amount (μL)}].
# [4] = biological target: T2, human γ-secretase complex, Notch1 as substrate (Homo sapiens, UniProt P49768); test: β-galactosidase assay of γ-secretase-expressing yeast with related-art GSI, Notch substrate; type: cell-based; conditions: yeast (FIG. 7)
# T2 construct: substrate mouse Notch1(1704-1755)-Gal4, β-galactosidase reporter
# Method: The yeast expressing the γ-secretase complex, the substrate Notch-Gal4, and the three-finger toxin produced in the foregoing was inoculated in 15 mL of a SD-LWU medium, and the resultant was shake-cultured (180 rpm) at 30 °C until its turbidity became from 0.8 to 1.0. After that, a 1.5 mL aliquot of the cultured product was dispensed and centrifuged (15,000 rpm, 3 minutes, room temperature), and cells were recovered. The cells were washed with 1 mL of cooling water, and were then suspended in 30 μL of a Lysis buffer (20 mM Tris-HCl, pH: 8.0, 10 mM MgCl2, 50 mM KCl, 1 mM EDTA, 5% glycerol, and 1 mM DTT), followed by the addition of an appropriate amount of acid-treated glass beads (425 μm to 600 μm, Sigma-Aldrich Co. LLC) thereto. After that, the mixture was stirred with a vortex mixer so that the cells were crushed. The crushed liquid was centrifuged (15,000 rpm, 10 minutes, 4 °C) to provide a lysate. […] After that, the absorbance (A420) of nitrophenol produced in the reaction liquid at 420 nm was measured. Further, the protein concentration of the lysate was determined by a Bradford method (Bio-Rad Laboratories, Inc.), and β-galactosidase activity was calculated: β-galactosidase unit/mg protein=1,000×A420/{time (min)×protein concentration (mg/μL)×liquid amount (μL)}.
compound,measurement,setting,value
NC(=O)[C@@H](CCC(F)(F)F)N(Cc1ccc(-c2ncon2)cc1F)S(=O)(=O)c1ccc(Cl)cc1 [avagacestat],serious side effects and deterioration of a cognitive function,γ-secretase [1],serious side effects and the deterioration of a cognitive function were observed
CC(C)[C@H](O)C(=O)N[C@@H](C)C(=O)N[C@@H]1C(=O)N(C)CCc2ccccc21 [semagacestat],serious side effects and deterioration of a cognitive function,γ-secretase [1],serious side effects and the deterioration of a cognitive function were observed
same,discharge of a decomposition product to the outside of a cell,γ-secretase [2],inhibits the discharge of a decomposition product to the outside of a cell
same,inhibition of Aβ production,γ-secretase [2],does not inhibit Aβ production
C[C@H](NC(=O)Cc1cc(F)cc(F)c1)C(=O)N[C@H](C(=O)OC(C)(C)C)c1ccccc1 [DAPT],suppression of the cleavage of the APP,[3]; yeast (FIG. 7),suppressed the cleavage of each of the APP and the Notch
same,suppression of the cleavage of the Notch,[4],suppressed the cleavage of each of the APP and the Notch
O=S(=O)(N[C@H](CO)C(C(F)(F)F)C(F)(F)F)c1ccc(Cl)s1 [begacestat],suppression of the cleavage of the APP versus the cleavage of the Notch,"[3]; 1 μM, 3 μM, and 10 μM, wild-type yeast and pdr1Δpdr3Δ strain, vs mock with dimethyl sulfoxide (FIG. 7)",the suppression of the cleavage of the APP was stronger than the suppression of the cleavage of the Notch
same,APP-specific cleavage-suppressing effect,"[3]; yeast, APP versus Notch cleavage (FIG. 7)",APP-specific inhibition by begacestat was observed
